Reference: US7205315B2, “Bicyclic imino acid derivatives as inhibitors of matrix metalloproteinases” (Sanofi-Aventis Deutschland GmbH, priority 2003, dated 2007)
Where a name gives a salt, the structure may show the parent alone.

Assays:
Assay type in all cases: biochemical
[1] = target: T1, catalytic domain of human collagenase-3 (MMP-13) (Homo sapiens, UniProt P45452); experiment: Enzyme activity of the catalytic domain of human collagenase-3 (MMP-13), fluorogenic substrate; settings: APMA-activated proenzyme, fluorescence 328/393 nm
T1 construct: enzyme activity of the catalytic domain of human collagenase-3 (MMP-13); purchased INVITEK, Berlin 30 100 803
Procedure: c) Determining the enzyme activity of the catalytic domain of human collagenase-3 (MMP-13).
Activation of the proenzyme:
(§1) 2 parts by volume of proenzyme were incubated, at 37° C. for 1.5 hours, with 1 part by volume of APMA solution. The APMA solution was prepared from a 10 mmol/l solution of p-aminophenylmercuric acetate in 0.1 mmol/l NaOH by diluting the solution with 3 parts by volume of tris/HCl buffer, pH 7.5 (see below). The pH was adjusted to between 7.0 and 7.5 by adding 1 mmol/l HCl. After the enzyme had been activated, it was diluted with the tris/HCl buffer to a concentration of 1.67 μg/ml.
(§2) In order to measure the enzyme activity, 10 μl of enzyme solution were incubated for 15 minutes with 10 μl of a 3% (v/v) buffered solution of dimethyl sulfoxide (reaction 1). In order to measure the enzyme inhibitor activity, 10 μl of enzyme solution were incubated with 10 μl of a 3% (v/v) buffered solution of dimethyl sulfoxide which contained the enzyme inhibitor (reaction 2).
Both in the case of reaction 1 and in the case of reaction 2, the enzyme reaction was monitored by fluorescence spectroscopy (328 nm (extinction)/393 nm (emission)) after 10 μl of a 3% (v/v) aqueous solution of dimethyl sulfoxide which contained 0.075 mmol of the substrate/1 had been added.
(§3) The enzyme activity was presented as increase in extinction/minute.
The effect of the inhibitor was calculated as a percentage inhibition in accordance with the following formula: % inhibition=100−[(increase in extinction/minute in reaction 2)/(increase in extinction/minute in reaction 1)×100].
(§4) The IC50, that is the concentration of inhibitor which is required for 50% inhibition of the enzyme activity, was determined graphically by plotting the percentage inhibitions at different inhibitor concentrations.
The buffer solution contained 0.05% Brij (Sigma, Deisenhofen, Germany) and also 0.1 mol of tris/HCl/l, 0.1 mol of NaCl/l, 0.01 mol of CaCl2/l (pH=7.5). The enzyme solution contained 1.67 μg of the enzyme domain/ml. The substrate solution contained 0.075 mmol of the fluorogenic substrate (7-methoxycoumarin-4-yl)acetyl-Pro-Leu-Gly-Leu-3-(2′,4′-dinitrophenyl)-L-2,3-diaminopropionyl-Ala-Arg-NH2/1 (Bachem, Heidelberg, Germany).

[2] = target: T2, catalytic domain of human stromelysin (MMP-3) (Homo sapiens, UniProt P08254); experiment: Enzyme activity of the catalytic domain of human stromelysin (MMP-3), fluorogenic substrate; settings: catalytic domain prepared as described by Ye et al., fluorescence 328/393 nm
T2 construct: of the catalytic domain of human stromelysin (MMP-3) and neutrophilic collagenase (MMP-8); made in house
T2 sequence (P08254 100-272 limits assumed): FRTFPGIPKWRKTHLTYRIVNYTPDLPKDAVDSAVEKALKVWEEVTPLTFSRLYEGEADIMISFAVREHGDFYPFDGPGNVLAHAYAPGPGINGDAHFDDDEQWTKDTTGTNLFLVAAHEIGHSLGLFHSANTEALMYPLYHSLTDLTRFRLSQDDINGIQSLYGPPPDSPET
Procedure: b) Preparation, and determination of the enzyme activity, of the catalytic domain of human stromelysin (MMP-3) and neutrophilic collagenase (MMP-8).
The two enzymes, i.e. stromelysin (MMP-3) and neutrophilic collagenase (MMP-8), were prepared as described by Ye et al. (Biochemistry; 31 (1992) pages 11231–11235). In order to measure the enzyme activity or the inhibitory effect on the enzyme, 10 μl of enzyme solution were incubated, for 15 minutes, with 10 μl of a 3% (v/v) buffered solution of dimethyl sulfoxide which contained the enzyme inhibitor, where appropriate. After 10 μl of a 3% (v/v) aqueous solution of dimethyl sulfoxide which contained 1 mmol of substrate/l had been added, the enzyme reaction was monitored by fluorescence spectroscopy (328 nm (ex)/393 nm(em)).
The enzyme activity is presented as increase in extinction/minute.
The buffer solution contained 0.05% Brij (Sigma, Deisenhofen, Germany) as well as 0.1 mol of tris/HCl/l, 0.1 mol of NaCl/l, 0.01 mol of CaCl2/l and 0.1 mol of piperazine-N,N′-bis[2-ethanesulfonic acid]/l (pH=7.5). The MMP-3 enzyme solution contained 2.3 μg, and the MMP-8 enzyme solution contained 0.6 μg, of one of the enzyme domains/ml prepared as described by Ye et al. The substrate solution contained 1 mmol of the fluorogenic substrate (7-methoxycoumarin-4-yl)acetyl-Pro-Leu-Gly-Leu-3-(2′,4′-dinitrophenyl)-L-2,3-diaminopropionyl-Ala-Arg-NH2/l (Bachem, Heidelberg, Germany).

[3] = target: T3, catalytic domain of human gelatinase A (MMP-2) (Homo sapiens, UniProt P08253); experiment: Enzyme activity of the catalytic domain of human gelatinase A (MMP-2), fluorogenic substrate; settings: APMA-activated proenzyme, fluorescence 328/393 nm
T3 construct: enzyme activity of the catalytic domain of human gelatinase A (MMP-2); purchased INVITEK, Berlin 30 100 602
T3 sequence (P08253 110-465 limits assumed): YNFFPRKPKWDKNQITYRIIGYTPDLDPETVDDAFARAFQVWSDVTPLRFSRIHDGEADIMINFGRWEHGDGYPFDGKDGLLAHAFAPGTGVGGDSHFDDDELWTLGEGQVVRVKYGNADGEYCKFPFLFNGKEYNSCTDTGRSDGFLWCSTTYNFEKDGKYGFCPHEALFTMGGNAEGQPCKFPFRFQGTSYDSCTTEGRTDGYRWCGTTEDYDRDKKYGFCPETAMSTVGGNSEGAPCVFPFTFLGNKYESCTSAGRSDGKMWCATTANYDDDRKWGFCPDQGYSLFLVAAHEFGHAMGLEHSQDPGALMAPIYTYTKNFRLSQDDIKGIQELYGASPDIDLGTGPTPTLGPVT
Procedure: d) Determining the enzyme activity of the catalytic domain of human gelatinase A (MMP-2). […] Activation of the proenzyme:
as §1, with “0.5 hour,” for “1.5 hours,”, “it” for “the solution”, “0.83” for “1.67”
as §2
Both in the case of reaction 1 and in the case of reaction 2, the enzyme reaction was monitored by fluorescence spectroscopy (328 nm (extinction)/393 nm (emission)) after 10 μl of a 3% (v/v) aqueous solution of dimethyl sulfoxide which contained 0.3 mmol of the substrate/1 had been added.
as §3
The effect of the inhibitor was calculated as percentage inhibition in accordance with the following formula: % inhibition=100−[(increase in extinction/minute in reaction 2)/(increase in extinction/minute in reaction 1)×100].
as §4
The buffer solution contained 0.05% Brij (Sigma, Deisenhofen, Germany) and also 0.1 mol of tris/HCl/l, 0.1 mol of NaCl/l, 0.01 mol of CaCl2/l (pH=7.5). The enzyme solution contained 0.83 μg of the enzyme domain/ml. The substrate solution contained 0.3 mmol of the fluorogenic substrate (7-methoxycoumarin-4-yl)acetyl-Pro-Leu-Gly-Leu-3-(2′,4′-dinitrophenyl)-L-2,3-diaminopropionyl-Ala-Arg-NH2/l (Bachem, Heidelberg, Germany).

SMILES | IC50 [1] [nM] | IC50 [2] [nM] | IC50 [3] [nM]
O=C(NO)C1C2CCCCC2CCN1S(=O)(=O)c1ccc(Oc2ccccc2)nc1 (stereo not drawn) [Example 5, 2-(6-phenoxypyridine-3-sulfonyl)decahydroisoquinoline-1-(N-hydroxy)-carboxamide trifluoroacetate] | 1.8 | 28 | 2
O=C(NO)C1C2CCCCC2CCN1S(=O)(=O)CCc1ccc(-c2ccc(Cl)cc2)cc1 (stereo not drawn) [Example 7, 2-[2-(4′-chlorobiphenyl-4-yl)ethanesulfonyl]decahydroisoquinoline-1-(N-hydroxy)carboxamide] | 7 | 65 | 4
O=C(NO)C1C2CCCCC2CCN1S(=O)(=O)c1ccc(Oc2ccncc2)cc1 (stereo not drawn) [Example 9, 2-[4-(pyridin-4-yloxy)benzenesulfonyl]decahydroisoquinoline-1-(N-hydroxy)carboxamide trifluoroacetate] | 21 | 160 | 20
COc1ccc(Oc2ccc(S(=O)(=O)N3CCC4CCCCC4C3C(=O)NO)cc2)cc1 (stereo not drawn) [Example 11, 2-[4-(4-methoxyphenoxy)benzenesulfonyl]decahydroisoquinoline-1-(N-hydroxy)carboxamide] | 1.5 | 25 | 2
O=C(NO)C1C2CCCCC2CCN1S(=O)(=O)c1ccc(Oc2ccc(F)cc2)cc1 (stereo not drawn) [Example 20, 2-[4-(4-fluorophenoxy)benzenesulfonyl]decahydroisoquinoline-1-(N-hydroxy)carboxamide] | 2 | 26 | 2
O=C(NO)[C@H]1[C@H]2CCCC[C@H]2CCN1S(=O)(=O)c1ccc(Oc2ccc(F)cc2)cc1 [Example 21, 2-[4-(4-fluorophenoxy)benzenesulfonyl]decahydroisoquinoline-1-(N-hydroxy)carboxamide] | 1.3 | 23 | 1.5
N#Cc1ccc(Oc2ccc(S(=O)(=O)N3CCC4CCCCC4C3C(=O)NO)cc2)cc1 (stereo not drawn) [Example 26, 2-[4-(4-cyanophenoxy)benzenesulfonyl]decahydroisoquinoline-1-(N-hydroxy)carboxamide] | 3 | 41 | 8

Continued, values first:

IC50 [1] [nM] | IC50 [2] [nM] | IC50 [3] [nM] | SMILES
2 | 25 | 2 | O=C(NO)[C@H]1[C@H]2CCCC[C@H]2CCN1S(=O)(=O)c1ccc(-c2ccc(Cl)cc2)cc1 (single isomer, unassigned) [Example 14, 2-(4′-chlorobiphenyl-4-sulfonyl)decahydroisoquinoline-1-(N-hydroxy)-carboxamide]
2300 | 10000 | 2300 | O=C(NO)[C@@H]1[C@@H]2CCCC[C@@H]2CCN1S(=O)(=O)c1ccc(-c2ccc(Cl)cc2)cc1 (single isomer, unassigned) [Example 15, 2-(4′-chlorobiphenyl-4-sulfonyl)decahydroisoquinoline-1-(N-hydroxy)-carboxamide]
3 | 40 | 30 | O=C(NO)C1C2CCCCC2CCN1S(=O)(=O)c1ccc(-c2ccc(Cl)cc2)cc1 (stereo not drawn) [Example 3, 2-(4′-chlorobiphenyl-4-sulfonyl)decahydroisoquinoline-1-(N-hydroxy)-carboxamide]
2 | 30 | 2.6 | O=C(NO)C1C2CCCCC2CCN1S(=O)(=O)c1ccc(Oc2ccc(OCC(F)(F)F)cc2)cc1 (stereo not drawn) [Example 13, 2-{4-[4-(2,2,2-trifluoroethoxy)phenoxy]benzenesulfonyl}decahydroisoquinoline-1-(N-hydroxy)carboxamide]
3 | 59 | 3 | O=C(NO)C1C2CCCCC2CCN1S(=O)(=O)c1ccc(-c2ccc(OC(F)(F)F)cc2)cc1 (stereo not drawn) [Example 19, 2-(4′-trifluoromethoxybiphenyl-4-sulfonyl)decahydroisoquinoline-1-(N-hydroxy)carboxamide]
2.1 | 50 | 2 | O=C(NO)C1C2CCCCC2CCN1S(=O)(=O)c1ccc(Oc2ccc(OC(F)(F)F)cc2)cc1 (stereo not drawn) [Example 23, 2-[4-(4-trifluoromethoxyphenoxy)benzenesulfonyl]decahydroisoquinoline-1-(N-hydroxy)carboxamide]
